According to the Kinase Knowledgebase extract (Sharma et al. 2016):

How the values were obtained:
PIK3CD (Human) = PIK3CD (Human) (UniProt O00329); experiment: Assessment of PIK3CD Kinase Activity
PIK3CG (human) = PIK3CG (human) (UniProt P48736); experiment: Assessment of PIK3CG Kinase Activity
PIK3CB (Human) = PIK3CB (Human) (UniProt P42338); experiment: Assessment of PIK3CB Kinase Activity
PIK3CA (human) = PIK3CA (human) (UniProt P42336); experiment: Assessment of PIK3CA Kinase Activity
Sequence of PIK3CA (human) (P42336 whole entry, looked up): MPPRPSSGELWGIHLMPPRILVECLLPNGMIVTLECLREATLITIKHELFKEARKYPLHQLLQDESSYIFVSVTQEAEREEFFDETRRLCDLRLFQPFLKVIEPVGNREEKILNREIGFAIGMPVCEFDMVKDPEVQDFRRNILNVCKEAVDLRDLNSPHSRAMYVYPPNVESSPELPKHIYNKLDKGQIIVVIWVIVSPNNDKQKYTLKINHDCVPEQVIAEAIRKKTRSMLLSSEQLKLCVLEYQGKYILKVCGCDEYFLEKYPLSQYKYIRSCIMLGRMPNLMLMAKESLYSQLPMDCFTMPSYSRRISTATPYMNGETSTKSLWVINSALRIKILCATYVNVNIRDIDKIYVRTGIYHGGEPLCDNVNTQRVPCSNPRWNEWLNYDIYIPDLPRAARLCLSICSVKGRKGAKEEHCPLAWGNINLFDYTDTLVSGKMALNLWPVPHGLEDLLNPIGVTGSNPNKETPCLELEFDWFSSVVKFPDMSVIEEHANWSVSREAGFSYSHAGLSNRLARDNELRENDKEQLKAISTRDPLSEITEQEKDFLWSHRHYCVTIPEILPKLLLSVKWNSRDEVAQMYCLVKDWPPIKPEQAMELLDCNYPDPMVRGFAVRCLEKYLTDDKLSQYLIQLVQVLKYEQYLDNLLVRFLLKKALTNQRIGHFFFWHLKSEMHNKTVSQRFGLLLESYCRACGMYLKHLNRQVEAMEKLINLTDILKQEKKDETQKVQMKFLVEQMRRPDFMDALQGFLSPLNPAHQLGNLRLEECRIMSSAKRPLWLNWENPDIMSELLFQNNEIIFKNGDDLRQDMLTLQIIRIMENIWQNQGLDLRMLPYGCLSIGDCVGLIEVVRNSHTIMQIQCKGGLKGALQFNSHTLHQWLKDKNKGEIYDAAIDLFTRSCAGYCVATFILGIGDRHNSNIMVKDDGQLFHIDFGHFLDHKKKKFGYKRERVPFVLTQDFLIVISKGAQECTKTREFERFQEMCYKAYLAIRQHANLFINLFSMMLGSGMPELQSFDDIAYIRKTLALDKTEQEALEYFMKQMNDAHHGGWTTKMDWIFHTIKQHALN

Sequence of PIK3CD (Human) (O00329 whole entry, looked up): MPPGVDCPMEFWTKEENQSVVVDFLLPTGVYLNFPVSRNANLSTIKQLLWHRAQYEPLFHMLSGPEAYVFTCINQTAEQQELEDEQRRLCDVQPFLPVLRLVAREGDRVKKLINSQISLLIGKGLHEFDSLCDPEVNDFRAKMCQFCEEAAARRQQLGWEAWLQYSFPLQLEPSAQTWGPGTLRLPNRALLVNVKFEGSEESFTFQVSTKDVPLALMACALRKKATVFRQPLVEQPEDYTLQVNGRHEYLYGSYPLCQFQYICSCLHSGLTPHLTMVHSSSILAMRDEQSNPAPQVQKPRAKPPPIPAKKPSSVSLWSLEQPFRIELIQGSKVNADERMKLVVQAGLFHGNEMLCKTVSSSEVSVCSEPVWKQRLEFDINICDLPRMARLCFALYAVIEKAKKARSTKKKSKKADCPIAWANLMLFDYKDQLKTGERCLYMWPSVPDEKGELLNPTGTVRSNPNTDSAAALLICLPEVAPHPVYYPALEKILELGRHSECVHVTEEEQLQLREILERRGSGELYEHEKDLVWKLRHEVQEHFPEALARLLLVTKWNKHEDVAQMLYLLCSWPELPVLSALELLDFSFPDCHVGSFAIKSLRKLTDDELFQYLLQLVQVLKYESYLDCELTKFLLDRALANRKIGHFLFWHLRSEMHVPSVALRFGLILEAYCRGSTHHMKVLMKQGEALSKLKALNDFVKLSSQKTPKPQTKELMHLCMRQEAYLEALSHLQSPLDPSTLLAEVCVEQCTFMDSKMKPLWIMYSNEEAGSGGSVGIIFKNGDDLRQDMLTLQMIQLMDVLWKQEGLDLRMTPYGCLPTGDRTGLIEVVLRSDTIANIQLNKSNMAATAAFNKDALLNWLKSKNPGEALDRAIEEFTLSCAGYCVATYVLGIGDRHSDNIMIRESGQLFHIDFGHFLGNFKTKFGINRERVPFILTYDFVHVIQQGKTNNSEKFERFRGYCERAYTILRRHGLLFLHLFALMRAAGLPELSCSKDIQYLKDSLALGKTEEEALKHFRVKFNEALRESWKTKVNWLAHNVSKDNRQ
Sequence of PIK3CB (Human) (P42338 whole entry, looked up): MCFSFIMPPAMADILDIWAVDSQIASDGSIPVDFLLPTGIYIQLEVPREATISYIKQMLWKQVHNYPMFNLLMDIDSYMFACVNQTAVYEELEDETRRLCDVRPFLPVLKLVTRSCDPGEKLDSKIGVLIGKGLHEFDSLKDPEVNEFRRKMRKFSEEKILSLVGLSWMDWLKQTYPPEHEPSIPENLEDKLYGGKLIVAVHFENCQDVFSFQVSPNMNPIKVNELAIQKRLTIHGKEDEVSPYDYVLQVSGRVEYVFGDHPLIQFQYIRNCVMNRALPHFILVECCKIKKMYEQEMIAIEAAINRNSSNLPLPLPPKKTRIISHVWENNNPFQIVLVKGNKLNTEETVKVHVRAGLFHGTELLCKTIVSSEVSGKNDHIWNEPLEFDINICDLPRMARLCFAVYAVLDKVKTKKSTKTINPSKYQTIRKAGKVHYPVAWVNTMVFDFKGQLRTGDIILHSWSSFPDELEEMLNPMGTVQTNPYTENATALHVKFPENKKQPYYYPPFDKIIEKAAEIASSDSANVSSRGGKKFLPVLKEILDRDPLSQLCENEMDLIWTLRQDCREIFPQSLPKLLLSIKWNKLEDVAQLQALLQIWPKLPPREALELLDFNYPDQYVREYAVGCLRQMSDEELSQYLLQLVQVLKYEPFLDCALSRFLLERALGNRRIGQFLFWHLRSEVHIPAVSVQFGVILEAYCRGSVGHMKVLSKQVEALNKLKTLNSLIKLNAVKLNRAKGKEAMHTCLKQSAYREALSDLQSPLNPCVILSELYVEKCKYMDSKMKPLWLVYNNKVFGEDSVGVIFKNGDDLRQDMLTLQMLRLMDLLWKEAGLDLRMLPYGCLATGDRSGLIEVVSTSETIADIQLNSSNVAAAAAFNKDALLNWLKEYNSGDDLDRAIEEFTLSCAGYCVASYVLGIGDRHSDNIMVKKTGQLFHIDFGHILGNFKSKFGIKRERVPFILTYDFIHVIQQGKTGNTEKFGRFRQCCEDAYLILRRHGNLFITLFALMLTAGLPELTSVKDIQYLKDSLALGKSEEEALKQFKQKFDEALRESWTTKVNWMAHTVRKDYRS
Sequence of PIK3CG (human) (P48736 whole entry, looked up): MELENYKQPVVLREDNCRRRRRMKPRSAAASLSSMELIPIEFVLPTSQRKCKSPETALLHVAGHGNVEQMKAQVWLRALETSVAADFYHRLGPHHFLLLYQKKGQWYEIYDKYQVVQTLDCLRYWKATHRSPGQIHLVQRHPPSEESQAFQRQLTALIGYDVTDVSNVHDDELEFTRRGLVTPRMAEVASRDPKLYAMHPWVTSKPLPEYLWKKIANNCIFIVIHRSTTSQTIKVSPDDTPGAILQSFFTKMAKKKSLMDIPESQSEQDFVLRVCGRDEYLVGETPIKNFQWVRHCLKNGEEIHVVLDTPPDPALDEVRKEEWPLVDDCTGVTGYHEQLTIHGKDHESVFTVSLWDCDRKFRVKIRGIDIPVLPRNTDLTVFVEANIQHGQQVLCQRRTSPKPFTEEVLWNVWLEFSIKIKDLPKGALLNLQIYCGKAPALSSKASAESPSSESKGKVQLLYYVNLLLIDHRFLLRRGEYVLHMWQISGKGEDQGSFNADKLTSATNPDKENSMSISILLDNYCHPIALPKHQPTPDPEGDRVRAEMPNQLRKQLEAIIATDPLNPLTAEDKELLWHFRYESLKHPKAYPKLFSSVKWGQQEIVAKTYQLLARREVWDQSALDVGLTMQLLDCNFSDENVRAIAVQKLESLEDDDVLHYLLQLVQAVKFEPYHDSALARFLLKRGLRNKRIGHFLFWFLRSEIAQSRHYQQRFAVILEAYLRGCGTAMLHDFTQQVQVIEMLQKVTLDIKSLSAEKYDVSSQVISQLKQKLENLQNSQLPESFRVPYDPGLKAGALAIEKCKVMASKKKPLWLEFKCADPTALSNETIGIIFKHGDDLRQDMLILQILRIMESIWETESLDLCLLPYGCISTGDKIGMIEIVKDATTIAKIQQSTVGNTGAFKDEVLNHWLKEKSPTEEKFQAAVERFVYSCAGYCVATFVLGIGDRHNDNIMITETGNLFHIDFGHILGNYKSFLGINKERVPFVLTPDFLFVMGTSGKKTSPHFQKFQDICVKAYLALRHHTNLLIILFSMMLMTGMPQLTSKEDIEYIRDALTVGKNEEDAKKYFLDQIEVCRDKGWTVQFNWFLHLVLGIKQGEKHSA

| SMILES | IC50 (PIK3CD (Human)) [nM] | IC50 (PIK3CG (human)) [nM] | IC50 (PIK3CB (Human)) [nM] | IC50 (PIK3CA (human)) [nM] |
| --- | --- | --- | --- | --- |
| O=C(C=Cc1ccc(S(=O)(=O)Nc2cc3nc(-c4cccc5[nH]ncc45)nc(N4CCOCC4)c3s2)cc1)NO | – | – | – | < 100 |
| COCCN(Cc1cc2nc(-c3cccc4[nH]ncc34)nc(N3CCOCC3)c2s1)c1ncc(C(=O)NO)cn1 | – | – | – | < 100 |
| CN(Cc1cc2nc(-c3ccccc3CO)nc(N3CCOCC3)c2s1)c1ncc(C(=O)NO)cn1 | – | – | – | 100 to 1000 |
| CN(Cc1cc2nc(-c3cnc(CN)nc3)nc(N3CCOCC3)c2s1)c1ncc(C(=O)NO)cn1 | – | – | – | < 100 |
| CN(CC1CCN(c2ncc(C(=O)NO)cn2)CC1)c1cc2nc(-c3cccc4[nH]ncc34)nc(N3CCOCC3)c2s1 | – | – | – | < 100 |
| CCN(Cc1cc2nc(-c3ccc(N)cc3)nc(N3CCOCC3)c2s1)c1ncc(C(=O)NO)cn1 | – | – | – | 100 to 1000 |
| CN(Cc1cc2nc(-c3ccc(CN)cc3)nc(N3CCOCC3)c2s1)c1ncc(C(=O)NO)cn1 | – | – | – | 100 to 1000 |
| COC(=O)CN(Cc1cc2nc(-c3cccc4[nH]ncc34)nc(N3CCOCC3)c2s1)c1ncc(C(=O)NO)cn1 | – | – | – | < 100 |
| CN(Cc1cc2nc(-c3cccc4[nH]ccc34)nc(N3CCOCC3)c2s1)c1ncc(C(=O)NO)cn1 | – | – | – | 100 to 1000 |
| O=C(NO)c1cnc(N2CCC(CNc3cc4nc(-c5cccc6[nH]ncc56)nc(N5CCOCC5)c4s3)CC2)nc1 | – | – | – | < 100 |

Second part, the molecule after the results:

| IC50 (PIK3CD (Human)) [nM] | IC50 (PIK3CG (human)) [nM] | IC50 (PIK3CB (Human)) [nM] | IC50 (PIK3CA (human)) [nM] | SMILES |
| --- | --- | --- | --- | --- |
| < 100 | < 100 | < 100 | < 100 | CN(Cc1cc2nc(-c3cccc4[nH]ncc34)nc(N3CCOCC3)c2s1)c1ncc(C(=O)NO)cn1 |
| < 100 | < 100 | < 100 | < 100 | O=C(NO)c1cnc(NCc2cc3nc(-c4cccc5[nH]ncc45)nc(N4CCOCC4)c3s2)nc1 |
| – | – | < 100 | < 100 | O=C(NO)c1cnc(N(CCO)Cc2cc3nc(-c4cccc5[nH]ncc45)nc(N4CCOCC4)c3s2)nc1 |
| 100 to 1000 | < 100 | < 100 | < 100 | O=C(NO)c1cnc(N2CCN(Cc3cc4nc(-c5cccc6[nH]ncc56)nc(N5CCOCC5)c4s3)CC2)nc1 |
| – | – | – | < 100 | O=C(CCCCCN1CCN(Cc2cc3nc(-c4cccc5[nH]ncc45)nc(N4CCOCC4)c3s2)CC1)NO |
| – | – | – | 100 to 1000 | O=C(CCCCCCN1CCN(Cc2cc3nc(-c4cccc5[nH]ncc45)nc(N4CCOCC4)c3s2)CC1)NO |
